Patent US6803195B1, “Facile detection of cancer and cancer risk based on level of coordination between alleles” (Ramot At Tel-Aviv University Ltd., priority 1999, dated 2004)

Test system: PHA-stimulated lymphocytes of non-cancerous individuals
Assay: FISH replication assay, lymphocytes of non-cancerous individuals grown with 5-azacytidine (Example 6)
Format: cell-based, human
Conditions: for percentage of SD cells, mean value in AZA-exposed non-cancerous samples: samples 16-30, 72 hours, mean ± standard deviation
Procedure: Each subject donated five ml of peripheral blood. Cell cultures of PHA-stimulated lymphocytes were set up according to standard protocol (Rooney and Czepulkowsli, 1992). Briefly, 0.5 ml of peripheral blood was introduced into a 15 ml test tube containing 5ml F-10 medium supplemented with 20% fetal calf serum, 0.2% heparin, 1% penicillin/streptomycin antibiotic solution (Biological industries, Israel) and 3% phytohemagglutinin (PHA). In addition, all the 15 samples derived from the hematological patients (samples 1-15) and 15 of the 41 samples derived from non-cancerous subjects (samples 16-30) were also grown in the presence of 10^−7M 5-azacytidine (AZA; Sigman, USA) added to the other ingredients described above.
After 72 hours at 37° C., colchicine (Sigma, USA) was added to each sample (final concentration of 5×10^−7M for one hour) followed by hypotonic treatment (0.075 M KC1 at 37° C. for 15 minutes) and four washes, each with a fresh cold (−20° C.) 3:1 solution of methanol: acetic acid. The cell suspensions were stored at −20° C. until used for FISH.
Six diverse loci were tested using directly labeled commercial probes obtained from Vysis: (i) the SNRPN probe (32-190004); (ii) the TP53 probe (32-190006); (iii) the AML1 probe (LSI 21; 32-190002); (iv) the RB1 probe (LSI 13; 32-190001); (v) the α-satellite probe specific for centromere 17 (32-130017, hereafter marked as CEN17); and (vi) the satellite III probe specific for centromere 15 (32-1300015, hereafter marked as CEN15). The SNRPN probe identifies the Prader-Willi/Angelman syndrome region on 15q11-13 and is the most well characterized imprinted region in man (Ozoelik et al 1992). The TP53 probe identifies the p53 gene mapped to […] and is a tumor suppressor gene whose deletion and/or inactivation is implicated in over 50% of all human tumors (Prokocimer et al 1998). The AML1 probe recognizes a gene mapped to chromosome 21q22, which is one of the most frequently translocated genes in human blood malignancy (Look 1997). […] It is located on chromosome 13q14, and encodes the retinoblastoma protein. Both centromere specific probes (CEN17 and CEN15) identify non-coding loci implicated with chromosomal segregation and stability and are usually used for the enumeration of chromosome 17 and 15, respectively. Also the AML1 and RB1 probes, although not identifying centromeric regions, were both approved by the FDA to replace centromere specific probes for the enumeration of chromosomes 21 and 13, respectively.
A standard protocol was followed, as recommended by Ingen Laboratories (currently Insitus Biotechnologies), with few minor changes. Probes were diluted in Ingen's DenHyb solutions D001 to 400 folds (CEN17 and CEN15) and in D003 to 100 fold (AML1; RB1) or 50 fold (TP53; SNRPN) instead of the hybridization solution supplied with the probe. Five μl of the probe solution was placed on the targeted area of the sample slides and covered with a 12 mm round silanized coverslip (Ingen laboratories, USA) at 76° C. and denatured for six minutes at that temperature. The slide-filled aluminum slide tray was then transferred into an HybBox (Ingen Laboratories, USA), covered and allowed to hybridize overnight in the box.
Each of the 15 samples derived from the noncancerous subjects (samples 16-30) grown in the presence of AZA was also analyzed with each of the six probes used.
Slides were analyzed blindly on an Olympus BH2 fluorescent microscope, using a triple band-pass filter (Chroma technology). For the replication assay (Boogs and Chinault, 1997) at least 100 cells, containing two well-defined hybridization signals were scored from each sample, for each probe and for each treatment, following one-color FISH. The structure of each signal, either singlet (S), representing a non-replicated sequence, or doublet (D), disclosing a replicated sequence, was noted FIG. 1. […]

With `Nc1ncn([C@@H]2O[C@H](CO)[C@@H](O)[C@H]2O)c(=O)n1` [AZA, 5-azacytidine] the “percentage of SD cells, mean value in AZA-exposed non-cancerous samples” value (AML1 locus, 10^-7M AZA) was 21.5±4.5%, the “percentage of SD cells, mean value in AZA-exposed non-cancerous samples” value (CEN15 locus, 10^-7M AZA) was 20.9±3.8% and the “percentage of SD cells, mean value in AZA-exposed non-cancerous samples” value (CEN17 locus, 10^-7M AZA) was 20.9±5.0%. The “percentage of SD cells, mean value in AZA-exposed non-cancerous samples” value (RB1 locus, 10^-7M AZA) was 22.3±3.9%, the “percentage of SD cells in AZA-exposed non-cancerous samples, range” value (TP53, AML1, RB1, CEN17 and CEN15, 10^-7M AZA) was 12-29% and the “percentage of SD cells, mean value in AZA-exposed non-cancerous samples” value (TP53 locus, 10^-7M AZA) was 20.4±4.4%. For the same compound, the “combined SD frequency (mean of TP53, AML1, RB1, CEN17 and CEN15) per sample, range” value (non-cancerous samples exposed to AZA) was 16.7-24.6%.
